Measured values taken from ChEMBL document CHEMBL4823252 (J Med Chem, 2021).
The source made the active and inactive calls. The rule behind the calls is not given here.

How the values were obtained:
[1] = biological target: T1, Receptor-type tyrosine-protein kinase FLT3 (Homo sapiens, UniProt P36888); experiment: Inhibition of FLT3 (unknown origin) incubated for 30 mins in presence of ATP by mobility shift assay
T1 sequence (P36888 whole entry): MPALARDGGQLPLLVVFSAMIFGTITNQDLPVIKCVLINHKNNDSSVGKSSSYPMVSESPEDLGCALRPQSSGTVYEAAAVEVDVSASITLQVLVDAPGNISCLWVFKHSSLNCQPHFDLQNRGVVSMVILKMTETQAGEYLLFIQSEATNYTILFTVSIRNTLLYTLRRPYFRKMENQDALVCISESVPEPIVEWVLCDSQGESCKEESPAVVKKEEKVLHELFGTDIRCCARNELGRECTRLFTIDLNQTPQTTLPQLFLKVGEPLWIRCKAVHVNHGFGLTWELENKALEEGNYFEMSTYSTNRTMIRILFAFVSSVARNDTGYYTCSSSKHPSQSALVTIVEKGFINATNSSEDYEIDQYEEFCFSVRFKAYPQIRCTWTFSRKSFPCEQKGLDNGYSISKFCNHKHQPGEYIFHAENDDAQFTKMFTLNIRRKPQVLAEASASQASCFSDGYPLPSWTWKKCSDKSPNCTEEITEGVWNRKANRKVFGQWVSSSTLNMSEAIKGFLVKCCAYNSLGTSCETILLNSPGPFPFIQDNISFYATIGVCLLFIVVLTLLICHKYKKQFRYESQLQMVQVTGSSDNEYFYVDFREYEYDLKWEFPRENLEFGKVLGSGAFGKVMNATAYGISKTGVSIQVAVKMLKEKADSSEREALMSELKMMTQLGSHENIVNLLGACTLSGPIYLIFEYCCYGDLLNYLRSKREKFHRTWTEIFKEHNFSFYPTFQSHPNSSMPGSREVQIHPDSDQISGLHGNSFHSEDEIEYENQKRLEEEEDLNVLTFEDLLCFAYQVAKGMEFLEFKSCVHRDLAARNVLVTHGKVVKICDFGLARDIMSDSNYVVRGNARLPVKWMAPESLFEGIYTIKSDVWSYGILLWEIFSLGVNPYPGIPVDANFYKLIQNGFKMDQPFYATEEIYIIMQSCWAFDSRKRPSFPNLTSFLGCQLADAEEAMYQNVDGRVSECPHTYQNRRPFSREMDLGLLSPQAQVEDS

[2] = biological target: Receptor-type tyrosine-protein kinase FLT3 (Homo sapiens, UniProt P36888, ITD); experiment: Inhibition of FLT3 ITD mutant (unknown origin) incubated for 30 mins in presence of ATP by mobility shift assay
[3] = test system: Receptor-type tyrosine-protein kinase FLT3 (Homo sapiens), P36888 [D835V]; experiment: Binding affinity to FLT3 D835V mutant (unknown origin) at 1000 nM relative to control
[4] = test system: Receptor-type tyrosine-protein kinase FLT3 (Homo sapiens), P36888 [N841I]; experiment: Binding affinity to FLT3 N841I mutant (unknown origin) at 1000 nM relative to control
[5] = species: Homo sapiens; experiment: Binding affinity to FLT3 ITD F691L mutant (unknown origin) at 1000 nM relative to control
[6] = test system: HCT-116; experiment: Antiproliferative activity against human HCT116 cells measured after 72 hrs by CCK8 assay; assay type: functional, cell-based; conditions: HCT-116, 72 h
[7] = test system: MDA-MB-231; experiment: Antiproliferative activity against human MDA-MB-231 cells measured after 72 hrs by CCK8 assay; assay type: functional, cell-based; conditions: MDA-MB-231, 72 h
[8] = test system: MV4-11; experiment: Induction of cell cycle arrest in human MV4-11 cells assessed as accumulation at sub-G1 phase at 10 nM incubated for 24 hrs by flow cytometry (reference value: […]%); assay type: functional
[9] = test system: MOLM-13; experiment: Induction of cell cycle arrest in human MOLM-13 cells assessed as accumulation at G2/M phase at 100 nM incubated for 24 hrs by flow cytometry (reference value: […]); assay type: functional
[10] = test system: MOLM-13; experiment: Induction of apoptosis in human MOLM-13 cells assessed as early apoptotic cells at 1 nM incubated for 24 hrs by flow cytometry (reference value: 2.18%); assay type: functional
[11] = biological target: Receptor-type tyrosine-protein kinase FLT3 (Homo sapiens) (UniProt P36888); experiment: Inhibition of FLT3 in human MV4-11 cells assessed as suppression of autophosphorylation at tyr589/591 residue at 10 uM incubated for 2 hrs by Western blot analysis; assay type: cell-based; design: scale not given: the % may be the effect or the level left
[12] = biological target: Receptor-type tyrosine-protein kinase FLT3 (Homo sapiens) (UniProt P36888); experiment: Inhibition of FLT3 in human MV4-11 cells assessed as reduction in ERK phosphorylation at 10 uM incubated for 2 hrs by Western blot analysis; assay type: cell-based
[13] = biological target: Receptor-type tyrosine-protein kinase FLT3 (Homo sapiens) (UniProt P36888); experiment: Inhibition of FLT3 in human MOLM-13 cells assessed as reduction in autophosphorylation at tyr589/591 residue incubated for 2 hrs by Western blot analysis; assay type: cell-based
[14] = biological target: Receptor-type tyrosine-protein kinase FLT3 (Homo sapiens) (UniProt P36888); experiment: Inhibition of FLT3 in human MOLM-13 cells assessed as reduction in ERK phosphorylation incubated for 2 hrs by Western blot analysis; assay type: cell-based
[15] = AUC (0 to last) in Sprague-Dawley rat at 1 mg/kg, iv; assay type: ADME, organism-based; design: route intravenous, time 0 - last, dose 1 mg/kg; conditions: in vivo
[16] = AUC (0 to infinity) in Sprague-Dawley rat at 1 mg/kg, iv; assay type: ADME, organism-based; design: route intravenous, time infinity, dose 1 mg/kg; conditions: in vivo
[17] = Cmax in Sprague-Dawley rat at 10 mg/kg, po; assay type: ADME, organism-based; design: route oral, dose 10 mg/kg; conditions: in vivo
[18] = MRT (0 to last) in Sprague-Dawley rat at 10 mg/kg, po; assay type: ADME, organism-based; conditions: in vivo
[19] = test system: MV4-11; experiment: Antitumor activity against human MV4-11 cells xenografted in po dosed mouse assessed as tumor growth inhibition administered for 20 days measured once every 2 days; assay type: functional, organism-based; conditions: time 20.0 day
[20] = test system: MV4-11; experiment: Antitumor activity against human MV4-11 cells xenografted in mouse assessed as tumor growth inhibition at 10 mg/kg, po administered for 20 days measured once every 2 days relative to control; assay type: functional; conditions: MV4-11, po, 480 h, time 20 day, read-out: TGI
[21] = test system: MOLM-13; experiment: Antitumor activity against human MOLM-13 cells xenografted in mouse assessed as tumor growth inhibition at 20 mg/kg, po administered for 16 days measured once every 2 days relative to control; assay type: functional; conditions: MOLM-13, po, 384 h, time 16 day, read-out: TGI
[22] = test system: MOLM-13; experiment: Antitumor activity against human MOLM-13 cells xenografted in mouse assessed as tumor regression at 40 mg/kg, po administered for 16 days measured on day 4 relative to control; assay type: functional; conditions: time 16 day
[23] = test system: Mus musculus; experiment: Induction of tumor recurrence mouse xenografted with human MOLM-13 cells at 10 to 40 mg/kg, po; assay type: functional, organism-based; conditions: dose 10-40 mg/kg
[24] = test system: MOLM-13; experiment: Antitumor activity against human MOLM-13 cells xenografted in po dosed mouse assessed as inhibition of tumor cell proliferation administered for 16 days measured once for every 2 days by Ki67 staining based immunohistochemical analysis; assay type: functional, organism-based; conditions: time 16.0 day
[25] = Toxicity in mouse xenografted with human MV4-11 cells assessed as effect on liver at 2.5 to 10 mg/kg, po administered for 16 days by hematoxylin and eosin staining assay; assay type: organism-based; conditions: in vivo, 384 h, dose 2.5-10 mg/kg, time 16 day
[26] = Toxicity in mouse xenografted with human MOLM-13 cells assessed as effect on spleen at 10 to 40 mg/kg, po administered for 20 days by hematoxylin and eosin staining assay; assay type: organism-based; conditions: in vivo, 480 h, dose 10-40 mg/kg, time 20 day

IC50 [1]: 1.8 nM
IC50 [2]: 0.8 nM
Activity [3]: Active
Activity [4]: Active
Activity [5]: Active
IC50 [6]: 3980 nM
IC50 [7]: 1830 nM
Activity [11]: 100%
Activity [12]: Active
Activity [13]: Dose-Dependent Effect
Activity [14]: Dose-Dependent Effect
AUC(0-t) [15]: 2880 ng·h/mL
AUC(0-inf) [16]: 2970 ng·h/mL
Cmax [17]: 1880 ng/mL
MRT last [18]: 6.6 h
Compound: Cc1c(NC(=O)CCN2CCCC2)c[nH]c1/C=C1\C(=O)Nc2ccc(F)cc21
Activity [8]: 28.68%
Activity [9]: 0.9%
Activity [10]: 3.69%
Activity [19]: Dose-Dependent Effect
inhibition in vivo at 10 mg/kg [20]: 93.4%
inhibition in vivo at 20 mg/kg [21]: 98%
Activity [22]: 100%
Activity [23]: inactive
Activity [24]: Dose-Dependent Effect
Activity [25]: Non-Toxic
Activity [26]: Non-Toxic
